The test has as its target T1, Rs89B1 (Raphanus sativus, UniProt A0A6J0K544).
T1 construct: gene LOC108814497; full-length CDS, C-terminal 6xHis tag (kept), expressed in Schizosaccharomyces pombe TN4, HisTrap purified; start MTVNEENT (from primer)
Kind of test: HPLC glucosyltransferase assay, initial rates, curve fitting. Type of test: biochemical. As to conditions: co-substrate UDP-glucose (5.0 mM in basic mix), sodium phosphate pH 7.0, 30°C. An excerpt: HPLC glucosyltransferase assay, initial rates, curve fitting on Rs89B1

Like-named read-outs stand apart in the source and are kept apart here.

T1 sequence (A0A6J0K544 entry or part of it): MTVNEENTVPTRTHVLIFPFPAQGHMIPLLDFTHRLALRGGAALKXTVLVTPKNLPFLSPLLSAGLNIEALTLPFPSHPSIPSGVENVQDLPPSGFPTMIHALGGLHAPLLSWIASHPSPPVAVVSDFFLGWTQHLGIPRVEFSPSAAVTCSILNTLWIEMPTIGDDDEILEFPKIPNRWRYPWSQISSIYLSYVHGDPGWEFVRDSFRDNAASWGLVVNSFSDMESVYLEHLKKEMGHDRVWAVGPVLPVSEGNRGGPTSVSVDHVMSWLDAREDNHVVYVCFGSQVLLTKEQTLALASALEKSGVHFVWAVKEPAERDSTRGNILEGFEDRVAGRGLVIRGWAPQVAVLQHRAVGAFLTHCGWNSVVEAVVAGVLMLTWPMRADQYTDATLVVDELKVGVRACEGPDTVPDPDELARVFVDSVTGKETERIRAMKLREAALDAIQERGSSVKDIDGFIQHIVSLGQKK

In the case of `O=C(O)c1c(O)cc(O)cc1O` [2,4,6-THBA], the Km came out at 198 ± 7.2 µM. Moreover, where the note is “read-out: Rs89B1_ins / Km”, the Km turned out to be 688 ± 14.6 µM.

With `O=C(O)c1ccc(O)cc1` [4-HBA], the Km came out at 233 ± 12.2 µM. Also, for the setting “read-out: Rs89B1_ins / Km”, the Km is 251 ± 15.4 µM.

For the molecule `O=C(O)c1ccc(O)cc1O` [2,4-DHBA], the Km worked out at 182 ± 4.2 µM. Further, the Km (read-out: Rs89B1_ins / Km) amounted to 212 ± 5.8 µM.

Take `O=C(O)c1cc(O)ccc1O` [2,5-DHBA]: the Km was 773.8 ± 1.6 µM. For the same molecule, the Km (read-out: Rs89B1_ins / Km) worked out at 663.2 ± 2.3 µM.

`O=C(O)c1ccc(O)c(O)c1O` [2,3,4-THBA, 2,3,4-trihydroxy benzoic acid]: the Km stood at 138 ± 2 µM. In addition, the Km (read-out: Rs89B1_ins / Km) was determined as 128 ± 4.5 µM.

These data come from publication PMC10901349, “Enzymatic properties of UDP-glycosyltransferase 89B1 from radish and modulation of enzyme catalytic activity via loop region mutation” (PLOS ONE, 2024).
